Laboratory results reported in patent US20240158393A1, “PYRIDONE COMPOUNDS AND METHODS OF USE” (Exelixis, Inc., priority 2021, published 2024).
pIC50: −log10 of the molar value.

Target: T1, Human Mer (Homo sapiens, UniProt Q12866)
T1 construct: Human Mer (residues R557-E882 with H628Q and R794A, 0.7 nM); purchased Eurofins Pharma Discovery Services UK Limited (KinaseProfiler service)
T1 sequence (Q12866 557-882 limits assumed): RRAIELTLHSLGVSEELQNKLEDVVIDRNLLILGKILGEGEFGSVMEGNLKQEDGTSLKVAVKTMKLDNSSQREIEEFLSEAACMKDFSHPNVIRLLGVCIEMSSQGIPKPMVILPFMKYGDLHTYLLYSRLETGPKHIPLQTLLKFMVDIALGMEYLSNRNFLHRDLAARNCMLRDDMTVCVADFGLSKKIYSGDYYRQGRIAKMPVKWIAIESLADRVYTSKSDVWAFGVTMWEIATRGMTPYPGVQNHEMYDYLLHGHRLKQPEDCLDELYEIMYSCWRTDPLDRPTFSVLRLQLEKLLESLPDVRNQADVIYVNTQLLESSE
Test: Human Mer kinase assay (33P radiometric / HTRF KinEase)
Type: biochemical
Details: protocols of Examples C-1 and/or C-2
How it was run: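 Two formats yield IC50 values. HTRF KinEase used MER residues 528-999 with ATP at Km (40 μM), 1 μM biotin-peptide, 60 min RT, […], 10 concentrations. 33P filter assay used 0.7 nM Mer R557-E882 (H628Q/R794A), 10 μM ATP, 250 μM peptide, 40 min RT, top 1 μM.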

Q: `COc1cc2nccc(Oc3ccc(NC(=O)c4cnc(C)c(/C=C/C5CCCC5)c4O)cc3F)c2nc1OC` [Compound 25, 5-[(E)-2-Cyclopentylethenyl]-N-[4-[(6,7-dimethoxy-1,5-naphthyridin-4-yl)oxy]-3-fluorophenyl]-4-hydroxy-6-methylpyridine-3-carboxamide] was tested. Which pIC50 did it give?
A: ≥ 7.00

Q: `COCCOc1cc2nccc(Oc3ccc(NC(=O)c4cnc(C)c(/C=C/C5CCCC5)c4O)cc3F)c2nc1OC` [Compound 36, 5-[(E)-2-Cyclopentylethenyl]-N-[3-fluoro-4-[[6-methoxy-7-(2-methoxyethoxy)-1,5-naphthyridin-4-yl]oxy]phenyl]-4-hydroxy-6-methylpyridine-3-carboxamide] was tested. Which pIC50 did it give?
A: ≥ 7.00

Q: With `COc1cc2nccc(Oc3ccc(NC(=O)c4c(C)nc(C)c(C(=O)NC5CC5)c4O)cc3F)c2nc1OC` [Compound 98, 5-N-Cyclopropyl-3-N-[4-[(6,7-dimethoxy-1,5-naphthyridin-4-yl)oxy]-3-fluorophenyl]-4-hydroxy-2,6-dimethylpyridine-3,5-dicarboxamide] as the compound, how does the pIC50 read?
A: < 6.52

Q: `COc1cc2nccc(Oc3ccc(NC(=O)c4c(C)nc(C)c(C(=O)N(C)C)c4O)cc3F)c2nc1OC` [Compound 93, 3-N-[4-[(6,7-Dimethoxy-1,5-naphthyridin-4-yl)oxy]-3-fluorophenyl]-4-hydroxy-5-N,5-N,2,6-tetramethylpyridine-3,5-dicarboxamide] was tested. Which pIC50 did it give?
A: < 6.52

Q: `COc1cc2nccc(Oc3ccc(NC(=O)c4cnc(C)c(C5=CCOCC5)c4O)cc3F)c2nc1OC` [Compound 1-3, 5-(3,6-Dihydro-2H-pyran-4-yl)-N-[4-[(6,7-dimethoxy-1,5-naphthyridin-4-yl)oxy]-3-fluorophenyl]-4-hydroxy-6-methylpyridine-3-carboxamide] was tested. Which pIC50 did it give?
A: ≥ 7.00

Q: `COc1cnc2c(Oc3ccc(NC(=O)c4cn(C)c(C)c(C5=CCOCC5)c4=O)cc3F)ccnc2c1` [Compound 12, 5-(3,6-Dihydro-2H-pyran-4-yl)-N-[3-fluoro-4-[(7-methoxy-1,5-naphthyridin-4-yl)oxy]phenyl]-1,6-dimethyl-4-oxopyridine-3-carboxamide] was tested. Which pIC50 did it give?
A: ≥ 7.00

Q: `COc1cc2nccc(Oc3cc(F)c(NC(=O)c4c(C)n(C)c(C)c(C5CC5)c4=O)cc3F)c2nc1OC` [Compound 47, 5-Cyclopropyl-N-[4-[(6,7-dimethoxy-1,5-naphthyridin-4-yl)oxy]-2,5-difluorophenyl]-1,2,6-trimethyl-4-oxopyridine-3-carboxamide] was tested. Which pIC50 did it give?
A: ≥ 7.00

Q: With `COCCOc1cc2nccc(Oc3ccc(NC(=O)c4c(O)c(C5=CCOCC5)c(C)[n+](C)c4C)cc3F)c2nc1OC` [Compound 44, 5-(3,6-Dihydro-2H-pyran-4-yl)-N-[3-fluoro-4-[[6-methoxy-7-(2-methoxyethoxy)-1,5-naphthyridin-4-yl]oxy]phenyl]-1,2,6-trimethyl-4-oxopyridine-3-carboxamide] as the compound, how does the pIC50 read?
A: ≥ 7.00

Q: `COc1cc2nccc(Oc3ccc(NC(=O)c4c(C)nc(C)c(C5=CCCCC5)c4O)cc3F)c2nc1OC` [Compound 2-3, 5-(Cyclohexen-1-yl)-N-[4-[(6,7-dimethoxy-1,5-naphthyridin-4-yl)oxy]-3-fluorophenyl]-4-hydroxy-2,6-dimethylpyridine-3-carboxamide] was tested. Which pIC50 did it give?
A: ≥ 7.00

Q: `COc1cc2nccc(Oc3ccc(NC(=O)c4c5n(cc(C6=CCOCC6)c4=O)CCOC5)cc3)c2nc1OC` [Compound G1-8, 7-(3,6-Dihydro-2H-pyran-4-yl)-N-[4-[(6,7-dimethoxy-1,5-naphthyridin-4-yl)oxy]phenyl]-8-oxo-3,4-dihydro-1H-pyrido[2,1-c][1,4]oxazine-9-carboxamide] was tested. Which pIC50 did it give?
A: ≥ 7.00

Q: `COc1cc2nccc(Oc3ccc(NC(=O)c4c(C)ccn(C(C)C)c4=O)cc3)c2nc1OC` [Compound 39, N-[4-[(6,7-Dimethoxy-1,5-naphthyridin-4-yl)oxy]phenyl]-4-methyl-2-oxo-1-propan-2-ylpyridine-3-carboxamide] was tested. Which pIC50 did it give?
A: ≥ 7.00

Q: How did the pIC50 turn out when `COc1cc2nccc(Oc3ccc(NC(=O)c4c(C)nc(C)c(C(C)C)c4O)cc3)c2nc1OC` [Compound 9, N-[4-[(6,7-Dimethoxy-1,5-naphthyridin-4-yl)oxy]phenyl]-4-hydroxy-2,6-dimethyl-5-propan-2-ylpyridine-3-carboxamide] was run?
A: ≥ 7.00

Q: With `COCCOc1cc2nccc(Oc3ccc(NC(=O)c4c(C)nc(C)c(C5=CCCC5)c4O)cc3F)c2nc1OC` [Compound 41, 5-(Cyclopenten-1-yl)-N-[3-fluoro-4-[[6-methoxy-7-(2-methoxyethoxy)-1,5-naphthyridin-4-yl]oxy]phenyl]-4-hydroxy-2,6-dimethylpyridine-3-carboxamide] as the compound, how does the pIC50 read?
A: ≥ 7.00

Q: How did the pIC50 turn out when `COc1cc2nccc(Oc3ccc(NC(=O)c4c(C)n(C)c(C)c(/C=C/C5CC5)c4=O)cc3F)c2nc1OC` [Compound 50, 5-[(E)-2-Cyclopropylethenyl]-N-[4-[(6,7-dimethoxy-1,5-naphthyridin-4-yl)oxy]-3-fluorophenyl]-1,2,6-trimethyl-4-oxopyridine-3-carboxamide] was run?
A: ≥ 7.00

Q: How did the pIC50 turn out when `COc1cc2nccc(Oc3ccc(NC(=O)c4cn(C)c(C)c(C5CCCC5)c4=O)cc3F)c2nc1OC` [Compound 2, 5-Cyclopentyl-N-[4-[(6,7-dimethoxy-1,5-naphthyridin-4-yl)oxy]-3-fluorophenyl]-1,6-dimethyl-4-oxopyridine-3-carboxamide] was run?
A: ≥ 7.00

Q: `COc1cc2nccc(Oc3ccc(NC(=O)c4c(C)n(C)c(C)c(C(=O)NC5CC5)c4=O)cc3F)c2nc1OC` [Compound 96, 3-N-Cyclopropyl-5-N-[4-[(6,7-dimethoxy-1,5-naphthyridin-4-yl)oxy]-3-fluorophenyl]-1,2,6-trimethyl-4-oxopyridine-3,5-dicarboxamide] was tested. Which pIC50 did it give?
A: < 6.52

Q: `C=C(C)n1c(C)cc(C)c(C(=O)Nc2ccc(Oc3ccnc4cc(OC)cnc34)c(F)c2)c1=O` [Compound 21, N-[3-Fluoro-4-[(7-methoxy-1,5-naphthyridin-4-yl)oxy]phenyl]-4,6-dimethyl-2-oxo-1-prop-1-en-2-ylpyridine-3-carboxamide] was tested. Which pIC50 did it give?
A: ≥ 7.00

Q: `COc1cnc2c(Oc3ccc(NC(=O)c4cnc(C)c(C5=CCOCC5)c4O)cc3F)ccnc2c1` [Compound 1-4, 5-(3,6-Dihydro-2H-pyran-4-yl)-N-[3-fluoro-4-[(7-methoxy-1,5-naphthyridin-4-yl)oxy]phenyl]-4-hydroxy-6-methylpyridine-3-carboxamide] was tested. Which pIC50 did it give?
A: ≥ 7.00

Q: `COc1cc2nccc(Oc3ccc(NC(=O)c4cnc(C)c(C5=CCCC5)c4O)cc3)c2cc1OC` [Compound 16, 5-(Cyclopenten-1-yl)-N-[4-(6,7-dimethoxyquinolin-4-yl)oxyphenyl]-4-hydroxy-6-methylpyridine-3-carboxamide] was tested. Which pIC50 did it give?
A: ≥ 7.00

Q: How did the pIC50 turn out when `COc1cnc2c(Oc3ccc(NC(=O)c4cnc(C)c(C5=CCOCC5)c4O)cc3)ccnc2c1` [Compound 7, 5-(3,6-Dihydro-2H-pyran-4-yl)-4-hydroxy-N-[4-[(7-methoxy-1,5-naphthyridin-4-yl)oxy]phenyl]-6-methylpyridine-3-carboxamide] was run?
A: ≥ 7.00

Q: `C=C(C)n1c(C)cc(C)c(C(=O)Nc2ccc(Oc3ccnc4cc(OC)c(OC)nc34)c(F)c2)c1=O` [Compound 20, N-[4-[(6,7-Dimethoxy-1,5-naphthyridin-4-yl)oxy]-3-fluorophenyl]-4,6-dimethyl-2-oxo-1-prop-1-en-2-ylpyridine-3-carboxamide] was tested. Which pIC50 did it give?
A: ≥ 7.00

Q: `COc1cc2nccc(Oc3ccc(NC(=O)c4cn(C)c(C)c(C5=CCCC5)c4=O)cc3F)c2nc1OC` [Compound 1, 5-(Cyclopenten-1-yl)-N-[4-[(6,7-dimethoxy-1,5-naphthyridin-4-yl)oxy]-3-fluorophenyl]-1,6-dimethyl-4-oxopyridine-3-carboxamide] was tested. Which pIC50 did it give?
A: ≥ 7.00
